According to ChEMBL document CHEMBL4342484, “Structure-Activity Relationship for the Oxadiazole Class of Antibacterials” (ACS Med Chem Lett, 2020):
≈ marks a conversion by molar mass, not a printed value. Calls of active or inactive are those of the source. The calls are words filed in the database; no cut-off is given here.

Key:
[1] = system: Staphylococcus haemolyticus; assay: Antibacterial activity against Staphylococcus haemolyticus ATCC 29970 by broth microdilution method; assay type: functional
Bacillus licheniformis = assay: Antibacterial activity against Bacillus licheniformis ATCC 12759 by broth microdilution method; assay type: functional
Bacillus cereus = assay: Antibacterial activity against Bacillus cereus ATCC 13061 by broth microdilution method; assay type: functional
Staphylococcus aureus [2] = assay: Antibacterial activity against vancomycin-resistant Staphylococcus aureus VRS1 clinical isolate by broth microdilution method; assay type: functional
Staphylococcus aureus [3] = assay: Antibacterial activity against vancomycin-resistant Staphylococcus aureus VRS2 clinical isolate by broth microdilution method; assay type: functional
Staphylococcus aureus [4] = assay: Antibacterial activity against Staphylococcus aureus N315 (NRS70) by broth microdilution method; assay type: functional
Staphylococcus aureus [5] = assay: Antibacterial activity against Staphylococcus aureus NRS120 by broth microdilution method; assay type: functional
Staphylococcus aureus [6] = assay: Antibacterial activity against Staphylococcus aureus NRS119 by broth microdilution method; assay type: functional
[7] = system: Staphylococcus epidermidis; assay: Antibacterial activity against Staphylococcus epidermidis ATCC 35547 by broth microdilution method; assay type: functional
Staphylococcus aureus [8] = assay: Antibacterial activity against Staphylococcus aureus ATCC 27660 by broth microdilution method; assay type: functional
Enterococcus faecium [9] = assay: Antibacterial activity against Enterococcus faecium NCTC 7171 by broth microdilution method; assay type: functional
Enterococcus faecium [10] = assay: Antibacterial activity against vancomycin-resistant Enterococcus faecium 106 clinical isolate by broth microdilution method; assay type: functional
Staphylococcus aureus [11] = assay: Antibacterial activity against Staphylococcus aureus NRS100 (COL) by broth microdilution method; assay type: functional
Enterococcus faecium [12] = assay: Antibacterial activity against vancomycin-susceptible Enterococcus faecium 119-39A clinical isolate by broth microdilution method; assay type: functional
[13] = Drug level in mouse thigh infected with linezolid-sensitive Staphylococcus aureus NRS70 at 40 mg/kg, po administered 1 hrs post infection and measured for 48 hrs; assay type: ADME, organism-based; settings: read-out: Drug uptake
Enterococcus faecalis [14] = assay: Antibacterial activity against Enterococcus faecalis ATCC 29212 by broth microdilution method; assay type: functional
Enterococcus faecalis [15] = assay: Antibacterial activity against vancomycin-susceptible Enterococcus faecalis 201 clinical isolate by broth microdilution method; assay type: functional
[16] = Drug level in mouse thigh infected with linezolid-resistant Staphylococcus aureus NRS119 at 40 mg/kg, po administered 1 hrs post infection and measured for 48 hrs; assay type: ADME, organism-based; settings: read-out: Drug uptake
Enterococcus faecalis [17] = assay: Antibacterial activity against vancomycin-resistant Enterococcus faecalis 99 clinical isolate by broth microdilution method; assay type: functional
Staphylococcus aureus [18] = assay: Antibacterial activity against Staphylococcus aureus ATCC 29213 by broth microdilution method; assay type: functional
HepG2 = assay: Cytotoxicity against human HepG2 cells assessed as reduction in cell viability by XTT assay; assay type: cell-based
[19] = Distribution half life in ICR mouse at 20 mg/kg, po administered as via gavage measured for 36 hrs by UPLC analysis; assay type: ADME, organism-based; settings: in vivo, read-out: alphat1/2 (converted)
[20] = AUC (0 to infinity) in ICR mouse at 20 mg/kg, po administered as via gavage measured for 36 hrs by UPLC analysis; assay type: ADME, organism-based; set-up: dose 20 mg/kg, route oral, time infinity; settings: in vivo
[21] = Volume of distribution in ICR mouse at 20 mg/kg, iv measured for 24 hrs by UPLC analysis; assay type: ADME, organism-based; settings: in vivo
[22] = AUC (0 to last) in ICR mouse at 20 mg/kg, iv measured for 24 hrs by UPLC analysis; assay type: ADME, organism-based; settings: in vivo
[23] = AUC (0 to last) in ICR mouse at 20 mg/kg, po administered as via gavage measured for 36 hrs by UPLC analysis; assay type: ADME, organism-based; settings: in vivo
Staphylococcus aureus [24] = assay: Antibacterial activity against Staphylococcus aureus ATCC 27660 infected in mouse model of peritonitis at 20 mg/kg, iv dosed at 30 mins and 7.5 hrs post infection and measured for 2 days
[25] = Plasma protein binding in human at […] incubated for 2 hrs by UPLC analysis; assay type: ADME, cell-free; settings: read-out: PPB (converted)
[26] = Terminal half life in ICR mouse at 20 mg/kg, iv measured for 24 hrs by UPLC analysis; assay type: ADME, organism-based; settings: in vivo, read-out: beta t1/2 (converted)
[27] = AUC (0 to infinity) in ICR mouse at 20 mg/kg, iv measured for 24 hrs by UPLC analysis; assay type: ADME, organism-based; set-up: dose 20 mg/kg, time infinity, route intravenous; settings: in vivo
[28] = Cmax in ICR mouse at 20 mg/kg, po administered as via gavage measured for 36 hrs by UPLC analysis; assay type: ADME, organism-based; set-up: dose 20 mg/kg, route oral; settings: in vivo
Staphylococcus aureus [29] = assay: Antibacterial activity against linezolid-resistant Staphylococcus aureus NRS119 infected in mouse model of neutropenic thigh infection assessed as reduction in bacterial count at 40 mg/kg, po administered […]; assay type: functional
[30] = Tmax in ICR mouse at 20 mg/kg, po administered as via gavage measured for 36 hrs by UPLC analysis; assay type: ADME, organism-based; settings: in vivo
[31] = Oral bioavailability in ICR mouse at 20 mg/kg administered as via gavage measured for 36 hrs by UPLC analysis; assay type: ADME, organism-based; settings: in vivo
Staphylococcus aureus [32] = assay: Antibacterial activity against linezolid-sensitive Staphylococcus aureus NRS70 infected in mouse model of neutropenic thigh infection assessed as reduction in bacterial count at 40 mg/kg, po administered 1 hrs post infection and measured for 48 hrs; assay type: functional
[33] = Distribution half life in ICR mouse at 20 mg/kg, iv measured for 24 hrs by UPLC analysis; assay type: ADME, organism-based; settings: in vivo, read-out: alphat1/2 (converted)
[34] = Terminal half life in ICR mouse at 20 mg/kg, po administered as via gavage measured for 36 hrs by UPLC analysis; assay type: ADME, organism-based; settings: in vivo, read-out: beta t1/2 (converted)
[35] = Clearance in ICR mouse at 20 mg/kg, iv measured for 24 hrs by UPLC analysis; assay type: ADME, organism-based; settings: in vivo
[36] = Hemolytic activity in human RBC relative to control; assay type: ADME, cell-based, Erythrocyte; settings: red blood cells (erythrocytes), read-out: Activity

SMILES	MIC [1] [µg/mL]	MIC (Bacillus licheniformis) [µg/mL]	MIC (Bacillus cereus) [µg/mL]	MIC (Staphylococcus aureus [2]) [µg/mL]	MIC (Staphylococcus aureus [3]) [µg/mL]	MIC (Staphylococcus aureus [4]) [µg/mL]	MIC (Staphylococcus aureus [5]) [µg/mL]	MIC (Staphylococcus aureus [6]) [µg/mL]	MIC [7] [µg/mL]	MIC (Staphylococcus aureus [8]) [µg/mL]	MIC (Enterococcus faecium [9]) [µg/mL]	MIC (Enterococcus faecium [10]) [µg/mL]	MIC (Staphylococcus aureus [11]) [µg/mL]	MIC (Enterococcus faecium [12]) [µg/mL]	concentration at 48 h [13] [ng/g]	MIC (Enterococcus faecalis [14]) [µg/mL]	MIC (Enterococcus faecalis [15]) [µg/mL]	concentration at 48 h [16] [ng/g]	MIC (Enterococcus faecalis [17]) [µg/mL]	MIC (Staphylococcus aureus [18]) [µg/mL]	also measured
CC(=O)NC[C@H]1CN(c2ccc(N3CCOCC3)c(F)c2)C(=O)O1 [LINEZOLID]	1 (≈ 2.96 µM)	0.5 (≈ 1.48 µM)	0.5 (≈ 1.48 µM)	1 (≈ 2.96 µM)	1 (≈ 2.96 µM)	1 (≈ 2.96 µM)	32 (≈ 94.9 µM)	32 (≈ 94.9 µM)	0.5 (≈ 1.48 µM)	1 (≈ 2.96 µM)	1 (≈ 2.96 µM)	1 (≈ 2.96 µM)	1 (≈ 2.96 µM)	1 (≈ 2.96 µM)	–	–	–	–	–	–	–
FC(F)(F)c1ccc(Oc2ccc(-c3noc(-c4ccc5[nH]ccc5c4)n3)cc2)cc1	4 to 8 (≈ 9.49 to 19 µM)	8 (≈ 19 µM)	16 (≈ 38 µM)	2 (≈ 4.75 µM)	2 (≈ 4.75 µM)	2 (≈ 4.75 µM)	2 (≈ 4.75 µM)	2 (≈ 4.75 µM)	2 (≈ 4.75 µM)	4 (≈ 9.49 µM)	2 (≈ 4.75 µM)	2 (≈ 4.75 µM)	2 (≈ 4.75 µM)	1 (≈ 2.37 µM)	7600	8 (≈ 19 µM)	4 (≈ 9.49 µM)	6000	4 (≈ 9.49 µM)	2 to 4 (≈ 4.75 to 9.49 µM)	–
Fc1ccc(Oc2ccc(-c3noc(-c4ccc5[nH]ccc5c4)n3)cc2)cc1	2 (≈ 5.39 µM)	2 (≈ 5.39 µM)	4 (≈ 10.8 µM)	1 (≈ 2.69 µM)	1 (≈ 2.69 µM)	1 (≈ 2.69 µM)	2 (≈ 5.39 µM)	1 to 2 (≈ 2.69 to 5.39 µM)	1 (≈ 2.69 µM)	2 to 4 (≈ 5.39 to 10.8 µM)	1 (≈ 2.69 µM)	1 (≈ 2.69 µM)	2 (≈ 5.39 µM)	1 (≈ 2.69 µM)	5800	4 (≈ 10.8 µM)	4 (≈ 10.8 µM)	6400	4 (≈ 10.8 µM)	1 to 2 (≈ 2.69 to 5.39 µM)	IC50 (HepG2): 37 µg/mL (≈ 99.6 µM); half-life [19]: 6.2 h; AUC [20]: 1040 uM.min/ml; Vd [21]: 14.2 L/kg; AUClast [22]: 1790 uM.min/ml; AUClast [23]: 718 uM.min/ml; Activity (Staphylococcus aureus [24]): Active; fraction unbound at 2 h [25]: 0.012; half-life [26]: 21.1 h; AUC [27]: 2570 uM.min/ml; Cmax [28]: 1000 ng/mL; Activity (Staphylococcus aureus [29]): 1.5 log10CFU; Tmax [30]: 2.5 h; bioavailability [31]: 41%; Activity (Staphylococcus aureus [32]): 1.1 log10CFU; half-life [33]: 0.4 h; half-life [34]: 17 h; clearance [35]: 7.8 mL/min/kg; hemolysis [36]: < 1%
